Some results are limits rather than exact numbers.

The test system of series [1] is platelet aggregation induced by RIS. In words: Disaggregation over time of RIS-induced platelet aggregation. The class given is cell-based. The note with it: FIG. 12; 10 mmol/L, pH 9.5, RIS 0.15-3 mM. The method, then:
(§1) Specifically, according to the method similar to Example 1, the amino group-containing compound (1-acetylguanidine) was added to a diluent to treat blood samples in which different concentrations of aggregation inducer were added. Then the samples were tested, in which the test was performed every 5 min after the treatment solution was added to each sample so as to obtain the change of disaggregation rates over time.
FIG. 11 and FIG. 12 show curve graphs of platelet aggregation tests induced by RIS at different concentrations. The substantially same method as the above-mentioned was used, except that ADP was replaced by RIS. The concentrations of RIS were 0.15 mM, 0.375 mM, 0.75 mM, 1.5 mM and 3 mM, respectively. […] In addition, the disaggregation effect of 1-acetylguanidine can reach the highest immediately for RIS at various concentrations, and remained relatively stable within 10 min. The rapid decrease in the disaggregation rate after 15 min was also because the blood in the samples was coagulated.

Series [2] has as its system aggregated platelets induced by ADP. In words: Platelet disaggregation rate of blood samples with ADP-induced platelet aggregation (hematology analyzer, PLT_O).
Method: The compounds in Table 1 above were respectively added to a diluent used for a hematology analyzer to prepare blood sample diluents. […] Each of the compounds in Table 1 (at a final concentration 0.01 mol/L) was added to the diluent separately, pH was adjusted to 14, and the osmotic pressure was adjusted to 200 mOsm/L to obtain the treatment solution.
The venous blood of a healthy subject was collected into blood anticoagulant tubes for later use. Two aliquot blood samples (1 ml/sample) were taken. The above-mentioned diluent was added to one of the samples, the resulting solution was mixed evenly, and then the platelet count was detected in a hematology analyzer (Mindray BC-6000Plus) and recorded as: PLT_O (unaggregated). The platelet aggregation inducer ADP (at a final concentration of 0.01 mmol/L) was added to the other sample, and the resulting solution was mixed evenly. Platelets were aggregated 5 min later, at this time the above-mentioned diluent was added, and then the blood containing the aggregated platelets was detected by the hematology analyzer to obtain the platelet count, which was recorded as: PLT_O (aggregated). Another 1 ml of blood sample was taken, the platelet aggregation inducer ADP (at a final concentration of 0.01 mmol/L) was added, and the resulting solution was mixed evenly. The above-mentioned treatment solution was added 5 min later, the resulting solution was mixed evenly, and then the platelet count of the treated blood was detected by the hematology analyzer and was recorded as: PLT_O (disaggregated).
In series [3] the test system is platelet aggregation induced by THR. In words: Disaggregation over time of THR-induced platelet aggregation. The series is classed as cell-based. The note with it: FIG. 8; 10 mmol/L, pH 9.5, THR 0.1-0.35 U. The method, then:
as §1
Similarly, FIG. 7 and FIG. 8 show curve graphs of platelet aggregation tests induced by THR at different concentrations. The substantially same method as the above-mentioned was used, except that ADP was replaced by THR. The concentrations of THR were 0.1 U, 0.15 U, 0.2 U, 0.23 U, 0.25 U, 0.28 U, 0.30 U and 0.35 U, respectively. […] This was because after a certain concentration of THR was added, soluble fibrinogen converted to […], causing blood coagulation, and platelets were also wrapped by […], resulting in a sharp increase in aggregation rate. […] However, a good disaggregation rate can be achieved when samples were tested immediately after treatment.

A short description of series [4]: pKa of the amino group of the compound. To be noted: pKa. The text has this: For the compound having a plurality of amino groups/imino groups, the pKa of amino group described herein refers to the first dissociation constant, that is, pKa of amino group or imino group which firstly dissociates hydrogen ion.
Series [5] has as its system platelet aggregation induced by COL. In words: Disaggregation over time of COL-induced platelet aggregation. The series is classed as cell-based. The note with it: FIG. 10; 10 mmol/L, pH 9.5, COL 0.05-20 mM, except lowest concentration. The method, then:
as §1
FIG. 9 and FIG. 10 show curve graphs of platelet aggregation tests induced by COL at different concentrations. The substantially same method as the above-mentioned was used, except that ADP was replaced by COL. The concentrations of COL were 0.05 mM, 0.1 mM, 0.5 mM, 1 mM, 5 mM, 10 mM and 20 mM, respectively.

The test system of series [6] is platelets. In words: Induction of platelet aggregation in venous blood by inducers (aggregation rate, impedance channel PLT_I). The class given is cell-based. The note with it: for time until platelet aggregation reached the maximum degree: after inducer was added, different concentrations. The source says:
Platelet aggregation can be induced by a variety of substances, thereby leading to blood coagulation. In order to investigate the disaggregation effects of amino group-containing compounds on platelet aggregation induced by different factors, in this example, substances, which can induce platelet aggregation, in the blood coagulation test scheme were selected according to the existing platelet aggregation pathways, and a variety of platelet aggregation models were established. The substances included adenosine diphosphate (ADP), thrombin (THR), collagen (COL) and ristocetin (RIS). […] In addition, the amino group-containing compounds can also effectively disaggregate the platelets having different inducements and aggregation degrees in certain concentration ranges and time ranges.
Specifically, several samples of 1 ml of venous blood were taken, and ADP was added to each sample to make the final concentrations be 0.01 mM, 0.25 mM, 0.5 mM and 1 mM respectively. The blood containing aggregated platelets was tested by using a hematology analyzer. The features including numbers, sizes, etc., of various cell particles in the blood were obtained by means of an impedance channel and an optical channel in the hematology analyzer. Normal blood was collected into blood anticoagulant tubes, and then the number of platelet particles detected by the impedance channel in the hematology analyzer was obtained and recorded as (PLT_I). When platelet aggregation occurred, the volume of a particle of the aggregated platelets was much larger than the volume of a single platelet and therefore the accurate count cannot be achieved by means of a corresponding platelet recognition mechanism. As a result, the platelet count was lowered and recorded as PLT_I (aggregated). No amino group-containing compound was added to the diluent of the impedance channel, thus the impedance channel reflected the degree of platelet aggregation in this aggregation model. The platelet count before aggregation was recorded as PLT_I (unaggregated), the platelet count after aggregation was recorded as PLT_I (aggregated), and the aggregation rate=PLT_I (aggregated)/PLT_I (unaggregated). The number of platelet particles tested by means of the optical channel in the hematology analyzer was obtained and recorded as (PLT_O). […] The platelet count before aggregation was recorded as PLT_O (unaggregated), and the platelet count after aggregation was recorded as PLT_O (undisaggregated). […] On the basis of the above principle, the model was established, and the disaggregation effect of the amino group-containing compound was quantitatively determined.

`CC(=O)NC(=N)N` [1-acetylguanidine]: the “time after which the disaggregation rate decreased rapidly” value in series [1] stood at 15 min. For the same compound, the disaggregation rate in series [2] (FIG. 3, ambient pH varied 7.0-10, after pH increase) is given as 97.32%; in series [2] (FIG. 3, ambient pH varied 7.0-10, low end of pH range), 35.23%; in series [2] (Table 5, pH 9.5, method of Example 1) it was 97.11%. The “disaggregation effect on platelet aggregation with various aggregation degrees” value in series [2] (FIG. 6, 10 mmol/L, pH 9.5, ADP 0.01-1 mM) was “remarkable disaggregation effects”. For the same compound, the disaggregation effect in series [2] (FIG. 14, 50 mmol/L (total for combination, equal parts), ADP 0.1 mmol/L) turned out to be 62.14%. Moreover, in series [2] (Table 4, pH 10.8, method of Example 1), the Platelet disaggregation rate was found to be 97.35%. Moreover, the “time after which the disaggregation effect decreased significantly” value in series [3] is 1 min; in series [5], 4 to 8 min. In addition, the results for the pKa in series [4] (Example 4), in series [4] (Table 4) and in series [4] (Table 5) were 8.33, 8.33 and 8.3, respectively.

As to `Nc1ncnc2c1ncn2[C@@H]1O[C@H](COP(=O)(O)OP(=O)(O)O)[C@@H](O)[C@H]1O` [ADP, adenosine diphosphate], the “platelet aggregation achieved at most” value in series [6] (FIG. 5, ADP 0.01 mM) is “about 35%”. Moreover, the “time until platelet aggregation reached the maximum degree” value in series [6] was at most 5 min.

Take collagen: the “degree of platelet aggregation” value in series [6] (FIG. 9, COL at various concentrations (0.05-20 mM)) is about 100%.

On to ristocetin, for which, in series [6], the “time until platelet aggregation reached the maximum degree” value was in the range of 15 to 20 min.

The values are drawn from patent publication US20230152304A1 (SHENZHEN MINDRAY BIO-MEDICAL ELECTRONICS CO., LTD., priority 2020, published 2023).
